Patent US20260248787A9, “MEDICAMENT FOR TREATING CANCER COMPRISING OPTICALLY ACTIVE AZABICYCLO RING DERIVATIVE” (Sumitomo Pharma Co., Ltd., priority 2023, published 2026)

Experiment: Phase 1/2 first-in-human clinical study, safety evaluation (DLT, TEAE, SAE)
Experimental: Arm A: Patients without azole antifungal treatment within 7 days (or 21 days for isavuconazole) of first dose of the present compound
Arm B: Patients receiving posaconazole, voriconazole, or fluconazole antifungal prophylaxis at enrollment
The safety of each dose level also was evaluated by the SRC, which was comprised of all investigators participating in the study and selected Sponsor study team members. The dose recommended by the BLRM method was treated as guidance and was integrated with a clinical assessment of toxicity information and review of other available data, including safety, PK, pharmacodynamic, and laboratory data.
When the Dose Limiting Toxicity (DLT) evaluation for each cohort was completed, the SRC determined a next dose level based on the DLT and other available data, including safety, PK, pharmacodynamic, and laboratory data with reference to the Bayesian Logistic Regression Model (BLRM) recommendation.
Dose escalation decisions were made after all patients in a dose level cohort have at least completed Cycle 1. All available data were presented along with the BLRM predictions for toxicity probabilities at the potential next dose levels. The SRC then determined the dose(s) for the next cohort(s).

## C=C1C[C@@H]2CC[C@H]1[C@@H](C(=O)N1CCC3(CC1)CN(c1ncncc1Oc1ccc(F)cc1C(=O)N(C(C)C)C(C)C)C3)N2 [the present compound, 5-fluoro-2-[(4-{7-[(1S,3S,4R)-5-methylidene-2-azabicyclo[2.2.2]octane-3-carbonyl]-2,7-diazaspiro[3.5]nonan-2-yl}pyrimidin-5-yl)oxy]-N,N-di(propan-2-yl)benzamide]
Arm B N=10, ≥Grade 3
  TEAE: Disease progression: 2 (20.0) n (%)
  TEAE: Dyspnoea: 0 n (%)
  TEAE: Epistaxis: 0 n (%)
  TEAE: Fatigue: 0 n (%)
  TEAE: Gastrointestinal disorders: 0 n (%)
  TEAE: General disorders and administration site disorders: 2 (20.0) n (%)
  TEAE: Headache: 0 n (%)
  TEAE: Hemorrhoids: 0 n (%)
  TEAE: Hypertriglyceridaemia: 1 (10.0) n (%)
  TEAE: Hypoalbuminaemia: 0 n (%)
  TEAE: Hypocalcaemia: 1 (10.0) n (%)
  TEAE: Hypomagnaesemia: 0 n (%)
  TEAE: Hyponatraemia: 0 n (%)
  TEAE: Infections and Infestations: 4 (40.0) n (%)
  TEAE: Investigations: 1 (10.0) n (%)
  TEAE: Metabolism and nutrition disorders: 4 (40.0) n (%)
  TEAE: Musculoskeletal and connective tissue disorders: 1 (10.0) n (%)
  TEAE: Nausea: 0 n (%)
  TEAE: Nervous System Disorders: 0 n (%)
  TEAE: Oedema peripheral: 0 n (%)
  TEAE: Pain in extremity: 0 n (%)
  TEAE: Platelet count decreased: 0 n (%)
  TEAE: Pneumonia: 2 (20.0) n (%)
  TEAE: Pruritus: 0 n (%)
  TEAE: Pyrexia: 0 n (%)
  TEAE: Respiratory, thoracic and mediastinal disorders: 0 n (%)
  TEAE: Sepsis: 2 (20.0) n (%)
  TEAE: Skin and subcutaneous tissue disorders: 0 n (%)
  TEAE: Stomatitis: 0 n (%)
  TEAE: Vomiting: 0 n (%)
  related TEAE: Aspartate aminotransferase increased: 1 (10.0) n (%)
  related TEAE: Blood and lymphatic system disorders: 1 (10.0) n (%)
  related TEAE: Decreased appetite: 0 n (%)
  related TEAE: Differentiation syndrome: 0 n (%)
  related TEAE: Gastrointestinal disorders: 0 n (%)
  related TEAE: General disorders and administration site conditions: 0 n (%)
  related TEAE: Headache: 0 n (%)
  related TEAE: Hypertriglyceridaemia: 1 (10.0) n (%)
  related TEAE: Hyperuricaemia: 0 n (%)
  related TEAE: Increased appetite: 0 n (%)
  related TEAE: Investigations: 1 (10.0) n (%)
  related TEAE: Leukocytosis: 1 (10.0) n (%)
  related TEAE: Metabolism and nutrition disorders: 1 (10.0) n (%)
  related TEAE: Nausea: 0 n (%)
  related TEAE: Neoplasms benign, malignant and unspecified (incl cysts and polyps): 0 n (%)
  related TEAE: Nervous system disorders: 0 n (%)
  related TEAE: Thirst: 0 n (%)
  related TEAE: Vomiting: 0 n (%)
Arm B N=10, ≥Grade 3 (not related to the present compound)
  TEAE: Hypokalaemia: 3 (30.0)*^3 n (%)
N=57, Any Grade
  Hematological TEAE regardless of causality: Anaemia: 9 (15.8%) n (%)
  Hematological TEAE regardless of causality: Febrile neutropenia: 12 (21.1%) n (%)
  Hematological TEAE regardless of causality: Leukocytosis: 10 (17.5%) n (%)
  Hematological TEAE regardless of causality: Neutrophil count decreased: 7 (12.3%) n (%)
  Hematological TEAE regardless of causality: Platelet count decreased: 9 (15.8%) n (%)
  Non-hematological TEAE regardless of causality: Arthralgia: 6 (10.5%) n (%)
  Non-hematological TEAE regardless of causality: Back pain: 8 (14.0%) n (%)
  Non-hematological TEAE regardless of causality: COVID-19: 6 (10.5%) n (%)
  Non-hematological TEAE regardless of causality: Constipation: 11 (19.3%) n (%)
  Non-hematological TEAE regardless of causality: Cough: 7 (12.3%) n (%)
  Non-hematological TEAE regardless of causality: Decreased appetite: 15 (26.3%) n (%)
  Non-hematological TEAE regardless of causality: Diarrhoea: 10 (17.5%) n (%)
  Non-hematological TEAE regardless of causality: Dizziness: 8 (14.0%) n (%)
  Non-hematological TEAE regardless of causality: Dysgeusia: 6 (10.5%) n (%)
  Non-hematological TEAE regardless of causality: Dyspnoea: 13 (22.8%) n (%)
  Non-hematological TEAE regardless of causality: Electrocardiogram QT prolonged: 7 (12.3%) n (%)
  Non-hematological TEAE regardless of causality: Epistaxis: 10 (17.5%) n (%)
  Non-hematological TEAE regardless of causality: Fatigue: 10 (17.5%) n (%)
  Non-hematological TEAE regardless of causality: Haemorrhage intracranial: 6 (10.5%) n (%)
  Non-hematological TEAE regardless of causality: Headache: 15 (26.3%) n (%)
  Non-hematological TEAE regardless of causality: Hypertension: 8 (14.0%) n (%)
  Non-hematological TEAE regardless of causality: Hypotension: 7 (12.3%) n (%)
  Non-hematological TEAE regardless of causality: Muscular weakness: 9 (15.8%) n (%)
  Non-hematological TEAE regardless of causality: Myalgia: 6 (10.5%) n (%)
  Non-hematological TEAE regardless of causality: Nausea: 23 (40.4%) n (%)
  Non-hematological TEAE regardless of causality: Oedema peripheral: 9 (15.8%) n (%)
  Non-hematological TEAE regardless of causality: Pain in extremity: 8 (14.0%) n (%)
  Non-hematological TEAE regardless of causality: Pneumonia: 10 (17.5%) n (%)
  Non-hematological TEAE regardless of causality: Pyrexia: 9 (15.8%) n (%)
  Non-hematological TEAE regardless of causality: Sepsis: 11 (19.3%) n (%)
  Non-hematological TEAE regardless of causality: Stomatitis: 11 (19.3%) n (%)
  Non-hematological TEAE regardless of causality: Vomiting: 20 (35.1%) n (%)
  Non-hematological laboratory change regardless of causality: ALT increase: 28 (49.1%) n (%)
  Non-hematological laboratory change regardless of causality: AST increase: 23 (40.4%) n (%)
  Non-hematological laboratory change regardless of causality: Hypertriglyceridemia: 45 (7.9%) n (%)
  Non-hematological laboratory change regardless of causality: Hypocalcemia: 33 (57.9%) n (%)
  Non-hematological laboratory change regardless of causality: Hypokalemia: 34 (7.0%) n (%)
  Non-hematological laboratory change regardless of causality: Hypomagnesemia: 26 (4.6%) n (%)
  Non-hematological laboratory change regardless of causality: Hyponatremia: 32 (56.1%) n (%)
  Non-hematological laboratory change regardless of causality: Hypophosphatemia: 19 (33.3%) n (%)
  Treatment related adverse event: Nausea: 10 (17.5%) n (%)
  Treatment related adverse event: Vomiting: 7 (12.3%) n (%)
N=57, Grade ≥3
  Hematological TEAE regardless of causality: Anaemia: 8 (14.0%) n (%)
  Hematological TEAE regardless of causality: Febrile neutropenia: 12 (21.1%) n (%)
  Hematological TEAE regardless of causality: Leukocytosis: 4 (7.0%) n (%)
  Hematological TEAE regardless of causality: Neutrophil count decreased: 6 (10.5%) n (%)
  Hematological TEAE regardless of causality: Platelet count decreased: 8 (14.0%) n (%)
  Non-hematological TEAE regardless of causality: Arthralgia: 1 (1.8%) n (%)
  Non-hematological TEAE regardless of causality: Back pain: 1 (1.8%) n (%)
